The values below come from paper PMC8151848, “Tambjamines and Prodiginines: Biocidal Activity against Trypanosoma cruzi” (Pharmaceutics, 2021).

Data set [1] can be described thus: Cytotoxicity assay (resazurin) in L-929 fibroblasts. In kind it is cell-based, mouse. The settings on record: mouse, L-929, 16 µM, n = 9, read-out: % Cytotoxicity ± SD. An excerpt: (§1) Mouse L-929 fibroblasts (NCTC clone 929, ECACC 88102702) were used for both drug toxicity and infection assays. Cell line was obtained from Dr. Concepció Soler, Dept. Pathology & Experimental therapeutics, Faculty of Medicine and Health Sciences, University of Barcelona, Spain. Human hepatocarcinoma Hep G2 cells (American Type Culture Collection (ATCC HB-8065)) were employed only in the drug toxicity assays and were obtained from Dr. Neus Agell, Cell Biology Research Group, Faculty of Medicine and Health Sciences, University of Barcelona, Spain.
(§2) Cells were seeded by trypsinization in 96-well microplates (L-929: 4 × 10^3 cells/well; Hep G2: 1.5 × 10^4 cells/well) and incubated for 24 h at 37 °C to allow cell attachment. On the following day, the medium was discarded and replaced with a fresh medium containing the different concentrations of the drugs. Hep G2 cells were treated with concentrations of 100, 10, and 1 µM of the different drugs, while L-929 cells were treated with a wider range of concentrations in order to calculate the IC50 value (the drug concentration that inhibits 50% of cell growth). Medium, growth, and drug blanks were used in each test as controls. Plates were incubated again for another 24 h. After treatment, 20 µL of resazurin diluted in 1X phosphate-buffered saline (PBS; Sigma Aldrich) was added at a final concentration of 70 µM. The plates were incubated for another 24 h, after which fluorescence was measured in a microplate reader (FLUOstar OPTIMA, BMG LABTECH GmbH, Ortenberg, Germany) at an excitation wavelength of 530 nm and an emission wavelength of 590 nm. Each concentration was tested in triplicate and the experiments were repeated three times independently. Results indicated the percentage of toxicity (% T value). (3) % Toxicity=100−(AE−AEB)/(AC−ACB)×100 where AE is the absorbance of the experimental group, AEB the absorbance of the drug blank, AC the absorbance of the untreated cells, and ACB the absorbance of the culture medium blank. For the L-929 fibroblasts, the IC50 values (the drug concentration that inhibits 50% of cell growth) were calculated for each compound using the GraphPad Prism software.
In general terms: The colour change of resazurin is a common sign of viable cells or microbes.

Data set [2] is described as follows: Cytotoxicity assay (resazurin) in Hep G2 cells. In kind it is cell-based, human. The settings on record: human, n = 9; for cytotoxicity at 24 h, 1 µM: Hep G2, 1 µM, read-out: Cytotoxicity (% cell growth inhibition) at 1 µM ± SD; for cytotoxicity at 24 h, 10 µM: Hep G2, 10 µM, read-out: Cytotoxicity (% cell growth inhibition) at 10 µM ± SD; for cytotoxicity at 24 h, 100 µM: Hep G2, 100 µM, read-out: Cytotoxicity (% cell growth inhibition) at 100 µM ± SD.
Source text: as §1
as §2, with “Hep G2 cells were treated with concentrations of 100, 10, and 1 µM of the different drugs, while L-929 cells were treated with a wider range of concentrations in order to calculate the IC50 value (the drug concentration that inhibits 50% of cell growth).” left out, “For the L-929 fibroblasts, the IC50 values (the drug concentration that inhibits 50% of cell growth) were calculated for each compound using the GraphPad Prism software.” left out

The test system of data set [3] is epimastigotes of T. cruzi. The data set is described as follows: Epimastigote susceptibility assay (combined therapy with benznidazole). In kind it is cell-based, Trypanosoma cruzi. The settings on record: combination of benznidazole with compound at 0.25x IC50. On the procedure:
To assess the anti-epimastigote effect of the compounds in combination with benznidazole, fixed concentrations of each compound were added to a 96-well microplate previously filled with serial dilutions of benznidazole (0.06–128 µM). These fixed concentrations were calculated based on the IC50 values previously obtained for each drug and corresponded to 4x IC50, 2x IC50, IC50, 0.75x IC50, 0.5x IC50, 0.25x IC50. Each well was inoculated with 100 µL of the epimastigotes (2.5 × 10^5/mL) obtained from the exponential growth phase and the plates were incubated for 72 h at 28 °C. Drug blanks, medium, and growth wells were included in each assay as controls. Afterward, 50 µL of CPRG diluted in 0.9% Triton X-100 solution were added at a final concentration of 200 µM and the plates were returned to the incubator for another 3 h at 37 °C. After incubation, absorbance was read at 595 nm and the data were analyzed. All experiments were repeated at least two times independently and each combination was tested in duplicate.
The results are expressed as the IC50 values obtained with each drug combination. To evaluate the interaction of benznidazole with these compounds, fractional inhibitory concentration (FIC) values were calculated as follows:
FIC of compound A (FIC A) = IC50 of A in combination/IC50 of A alone; while FIC of compound B (FIC B) = IC50 of B in combination/IC50 of B alone.
Finally, the FIC index (FICi) was calculated as the sum of FICs using the following formula: FICi=FIC A+FIC B
FICi values were interpreted according to the criteria established by Simoes-Silva et al.: FICi ≤ 0.5 indicates synergism; FICi > 0.5 and ≤ 4 indicates an additive interaction (no interaction); and FICi > 4 indicates antagonism.

[4] abbreviates: L-929 fibroblasts (NCTC clone 929).
[5] abbreviates: Hep G2 hepatocarcinoma cells (ATCC HB-8065).

Molecules are shown by their SMILES. Like-named read-outs stand apart in the source and are kept apart here.

Regarding `O=C(Cn1ccnc1[N+](=O)[O-])NCc1ccccc1` [Benznidazole, reference compound], the cytotoxicity at 24 h, 16 µM in data set [1] (setting [4]) worked out at 0%. In data set [2] (setting [5]), the cytotoxicity at 24 h, 1 µM was found to be 0%; the cytotoxicity at 24 h, 10 µM came to 0.44 ± 0.61%; the cytotoxicity at 24 h, 100 µM is 0.18 ± 0.08%.
For the compound `CCc1c(-c2ccc[nH]2)[nH]c(/C=N/C2CCCCC2)c1C` [MM3], the FICi in data set [3] came out at 0.79. The cytotoxicity at 24 h, 16 µM in data set [1] (setting [4]) was 88.4 ± 2.75%. Further, in data set [2] (setting [5]), the cytotoxicity at 24 h, 1 µM stood at 0.99 ± 0.92%; the cytotoxicity at 24 h, 10 µM came to 24.9 ± 8.92%; the cytotoxicity at 24 h, 100 µM is 94.36 ± 0.5%.
The corresponding values for `CCc1c(-c2ccc[nH]2)[nH]c(/C=N/c2ccc(C(C)(C)C)cc2)c1C` [MM4] are 0.70, 64.2 ± 10.5%, 0%, 19.1 ± 3.94% and 85.2 ± 9.91%.
Turning to `CCCCCC1=C/C(=C/c2[nH]c(-c3ccc[nH]3)cc2OC)N=C1C` [Natural prodigiosin, prodigiosin], the FICi in data set [3] is reported as 0.81. Besides, the cytotoxicity at 24 h, 16 µM in data set [1] came out at 95.8 ± 0.09%.
Regarding `COC1=CC(c2cc3ccccc3[nH]2)=N/C1=C\c1[nH]c(C)cc1C` [Obatoclax, reference compound], the FICi in data set [3] is 1.80. Besides, the cytotoxicity at 24 h, 16 µM in data set [1] (setting [4]) is 63.5 ± 1.63%. In data set [2] (setting [5]), the cytotoxicity at 24 h, 1 µM was 10.4 ± 4.8%; the cytotoxicity at 24 h, 10 µM was found to be 63.3 ± 16.9%; the cytotoxicity at 24 h, 100 µM was 74.8 ± 4.06%.
For the compound `CCCCCC1=C/C(=C/c2[nH]c(-c3ccc[nH]3)cc2OC)N=C1C` [Synthetic prodigiosin, prodigiosin], in data set [3], the FICi came to 0.73. Besides, in data set [2], the cytotoxicity at 24 h, 10 µM worked out at 90.5 ± 0.82% and the cytotoxicity at 24 h, 100 µM amounted to 95.2 ± 0.94%.
